Consider four compounds from US8501995B2, “β-phenylethylidenehydrazine derivatives” (The Governors of the University of Alberta, priority 2009, dated 2013).

Like-named read-outs stand apart in the source and are kept apart here.

By inhibition is commonly meant the change of the read-out against control, counted positive when it falls. The low end stands for a response near the control, the high end for a response far below the control.

Test [1] has as its target T1, MAO-A (Rattus norvegicus, UniProt P21396).
T1 construct: from tissue; host or cells: rat (male Sprague-Dawley) whole brain homogenate
T1 sequence (P21396 1-526): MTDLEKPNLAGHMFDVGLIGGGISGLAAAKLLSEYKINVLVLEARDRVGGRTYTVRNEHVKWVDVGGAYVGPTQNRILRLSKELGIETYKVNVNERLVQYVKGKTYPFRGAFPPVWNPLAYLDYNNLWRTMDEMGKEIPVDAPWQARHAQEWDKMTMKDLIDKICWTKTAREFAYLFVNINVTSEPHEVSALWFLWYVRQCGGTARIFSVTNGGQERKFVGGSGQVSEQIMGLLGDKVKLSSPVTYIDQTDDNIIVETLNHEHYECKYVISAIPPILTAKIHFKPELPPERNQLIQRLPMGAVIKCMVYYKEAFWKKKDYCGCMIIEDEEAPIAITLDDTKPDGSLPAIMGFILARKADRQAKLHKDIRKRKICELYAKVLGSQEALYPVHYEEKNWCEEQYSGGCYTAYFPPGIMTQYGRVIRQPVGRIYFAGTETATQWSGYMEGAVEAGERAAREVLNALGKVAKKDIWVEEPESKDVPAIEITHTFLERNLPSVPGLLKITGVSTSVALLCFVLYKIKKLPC
Put plainly: MAO-A inhibition in vitro in control rat brain homogenate (14C-5-hydroxytryptamine substrate). It is filed as biochemical. As for the experimental part: (§1) Monoamine oxidase activity was determined using a modified protocol described by Lyles and Callingham.^51 In the in vitro studies, the drugs were pre-incubated with control rat brain homogenate prior to conducting the assay. Briefly, tissue homogenate was diluted in KH2PO4 (0.2M), and an aliquot (50 μl) was incubated with the appropriate radiolabelled substrates (^14C-labelled 5-hydroxytryptamine and β-phenylethylamine were used as substrates for MAO-A and -B respectively). The reaction products were extracted by a mixture of ethyl acetate and toluene (1:1 v/v), and a portion of the top layer was added to a vial containing scintillation fluid for radioactivity measurement. Radioactivity (dpm) was counted using a Beckman LS 7500 liquid scintillation spectrometer.

The subject of test [2] is brain levels of amino acids (GABA, glutamate, alanine and glycine). In kind it is in vivo. Conditions: rat whole brain; for effect on brain GABA levels / effect on brain alanine levels / effect on brain glutamate levels / effect on brain glycine levels: 3, 6, 12 hours, i.p., equimolar doses (PEH 30 mg/kg, 7p 47 mg/kg, 8p 38.5 mg/kg). As for the experimental part:
(§2) Male Sprague-Dawley rats (approximately 300 g) were pair-housed in polycarbonate cages with free access to food (Purina Rat Chow) and water, and were maintained on a 12-hour light-dark cycle (lights on at 0800). All animal procedures were approved by the University of Alberta Biosciences Animal Policy and Welfare Committee, and were carried out in accordance with the guidelines of the Canadian Council on Animal Care.
(§3) In the ex vivo studies, animals were injected intraperitoneally with equimolar amounts of PEH (30 mg/kg), 7p (47 mg/kg) or 8p (38.5 mg/kg) or vehicle (corn oil) and were killed by decapitation 3, 6 or 12 hours following drug administration. Brains were rapidly removed and flash-frozen in 2-methylbutane on solid carbon dioxide, and were stored at −80° C. Subsequently, partially-thawed brains were homogenized in 5 volumes of ice-cold distilled water, and stored in aliquots at -80° C. for use in subsequent analyses (GABA-T, MAO-A, MAO-B, and brain levels of amino acids) after addition to the appropriate buffer medium.
Amino acid levels (GABA, glutamate, alanine and glycine) were determined using a modified procedure previously described by Grant and colleagues^52 for the quantification of amino acids using HPLC combined with fluorescence detection, following derivatization with fluoraldehyde reagent [o-phthaldialdehyde (OPA)] and isobutyryl-L-cysteine (IBLC). Briefly, a portion of the homogenate (100 μl) was added to ice-cold methanol (400 μl), re-homogenized and centrifuged (13,000 g, 4° C.). The supernatants were further diluted by a factor of 2 in ice-cold water, and transferred to HPLC vials. A portion of the supernatant (5 μl) was reacted with OPA/IBLC (5 μl) in the injection loop of a Waters Alliance 2690XE system for 1.5 minutes before injection onto the analytical column (Symmetry C18 5 μm (4.6×150 mm)), connected to a Symmetry C18 guard column, held at 30° C. A Waters 474 fluorescence detector was set to an excitation wavelength of 344 nm and an emission wavelength of 443 nm. Data were collected and analyzed using the Empower Pro software package (Waters).

The target in test [3] is T1, MAO-A. Put plainly: MAO-A activity ex vivo in brain tissue of drug-treated rats. Particulars: for MAO-A activity ex vivo / MAO-A inhibition ex vivo: 8p 38.5 mg/kg i.p.; for effect on MAO-A activity ex vivo: time points tested 3, 6, 12 hours, i.p., equimolar doses (PEH 30 mg/kg, 7p 47 mg/kg, 8p 38.5 mg/kg). As for the experimental part:
as §2, §3, §1

Test [4] concerns the target T2, GABA-T (Rattus norvegicus, UniProt P50554).
T2 construct: Brain homogenate from control rats was pre-incubated with the drug of interest; from tissue; host or cells: rat (male Sprague-Dawley) whole brain homogenate
Put plainly: GABA-T activity ex vivo in brain homogenates of drug-treated rats (radiochemical). Conditions: i.p., equimolar doses (PEH 30 mg/kg, 7p 47 mg/kg, 8p 38.5 mg/kg). As for the experimental part:
as §2, §3
(§4) A modification of the colorimetric method of Sethi^49 was used in the initial in vitro screen. Brain homogenate from control rats was pre-incubated with the drug of interest and an incubation buffer before conducting the assay. In the ex vivo study of homogenates from brains of rats treated with the analogs, GABA-T activity was measured using the radiochemical procedure of Sterri and Fonnum.^20 Briefly, homogenates were incubated with radiolabelled GABA in a buffer containing pyridoxal phosphate and the resultant products were isolated using a liquid anion exchanger (tri-n-octylamine). Radioactivity (dpm) was counted using a Beckman LS 7500 liquid scintillation spectrometer.

The target in test [5] is T3, MAO-B (Rattus norvegicus, UniProt P19643).
T3 construct: the drugs were pre-incubated with control rat brain homogenate prior to conducting the assay; from tissue; host or cells: rat (male Sprague-Dawley) whole brain homogenate
T3 sequence (P19643 1-520): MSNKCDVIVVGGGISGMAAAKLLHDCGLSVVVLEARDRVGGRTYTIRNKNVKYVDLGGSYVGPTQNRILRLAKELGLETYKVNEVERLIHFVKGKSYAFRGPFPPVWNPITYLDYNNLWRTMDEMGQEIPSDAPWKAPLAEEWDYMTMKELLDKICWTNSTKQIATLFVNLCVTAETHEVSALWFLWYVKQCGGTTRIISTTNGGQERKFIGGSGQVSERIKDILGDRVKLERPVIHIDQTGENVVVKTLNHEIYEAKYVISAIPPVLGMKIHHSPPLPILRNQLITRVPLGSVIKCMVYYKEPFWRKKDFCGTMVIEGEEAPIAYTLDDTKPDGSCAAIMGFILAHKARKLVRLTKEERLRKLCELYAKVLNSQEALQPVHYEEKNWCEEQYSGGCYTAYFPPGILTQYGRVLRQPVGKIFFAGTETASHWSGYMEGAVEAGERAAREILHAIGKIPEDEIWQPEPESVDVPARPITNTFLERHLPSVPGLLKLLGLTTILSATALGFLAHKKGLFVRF
Put plainly: MAO-B activity ex vivo in brain tissue of drug-treated rats. Conditions: i.p.; for MAO-B activity ex vivo: 7p 47 mg/kg, 8p 38.5 mg/kg; for effect on MAO-B activity ex vivo: time points tested 3, 6, 12 hours, equimolar doses (PEH 30 mg/kg, 7p 47 mg/kg, 8p 38.5 mg/kg). As for the experimental part: as §2, §3, §1

The target of test [6] is T3, MAO-B. Put plainly: MAO-B inhibition in vitro in control rat brain homogenate (14C-β-phenylethylamine substrate). It is filed as biochemical. As for the experimental part: as §1
For test [7], the target named is T2, GABA-T. Kind of test: GABA-T inhibition in vitro, colorimetric screen in control rat brain homogenate. It is filed as biochemical. As for the experimental part:
as §4

[8] abbreviates: 3 hours following drug administration.
Where [9] appears, read: 6 hours following drug administration.
Where [10] appears, read: 6 hours following drug injection.
[11] abbreviates: 12 hours following drug injection.
[12] abbreviates: rat brain homogenate, mean±SEM, n=4.
Where [13] appears, read: 3 hours following injection, PEH 30 mg/kg i.p.

T2 sequence (P50554 28-500): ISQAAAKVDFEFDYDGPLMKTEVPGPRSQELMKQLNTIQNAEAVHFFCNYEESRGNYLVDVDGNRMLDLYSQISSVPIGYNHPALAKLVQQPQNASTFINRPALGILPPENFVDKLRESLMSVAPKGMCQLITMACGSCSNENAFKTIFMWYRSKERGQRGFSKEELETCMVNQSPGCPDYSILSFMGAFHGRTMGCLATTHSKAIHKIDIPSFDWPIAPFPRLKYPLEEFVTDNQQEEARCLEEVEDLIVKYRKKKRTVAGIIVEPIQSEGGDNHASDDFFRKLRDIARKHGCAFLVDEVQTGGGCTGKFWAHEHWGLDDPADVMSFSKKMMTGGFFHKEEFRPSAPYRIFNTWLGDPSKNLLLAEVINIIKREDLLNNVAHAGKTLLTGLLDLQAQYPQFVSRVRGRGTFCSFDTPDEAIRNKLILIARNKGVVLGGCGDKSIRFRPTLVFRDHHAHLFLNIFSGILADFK

`C#CCNN=CCc1ccccc1` [8p, (E)- and (Z)-N-(2-Propynyl)-2-(phenyl)ethylidene]hydrazines]: the “inhibition of MAO-A in vitro” value at MAO-A [1] (concentration of 10 μM) is listed as “neither 7p nor 8p caused any inhibition of MAO-A or -B”. For the same compound, in test [2], the “effect on brain GABA levels” value is recorded as “did not significantly alter the levels of GABA, alanine or glutamate at any time point tested”; the “effect on brain alanine levels” value was “did not significantly alter the levels of GABA, alanine or glutamate at any time point tested”; the “effect on brain glutamate levels” value is “did not significantly alter the levels of GABA, alanine or glutamate at any time point tested”; the “effect on brain glycine levels” value is “significantly increased glycine at 3 and 6 hours post-injection”. Besides, the brain glycine level in test [2] (6 hours post-injection, 8p 38.5 mg/kg i.p.) is recorded as 216 % of control. Also, at MAO-A [3] (setting [8]), the “MAO-A activity ex vivo” value is 78 % of control and the “MAO-A inhibition ex vivo” value was 22%. Moreover, on MAO-A [3] (setting [9]), the “MAO-A activity ex vivo” value is 70 % of control and the “MAO-A inhibition ex vivo” value worked out at 30%. For the same compound, the “effect on MAO-A activity ex vivo” value on MAO-A [3] is on record as “weak, transient effect on MAO-A”. In addition, the “GABA-T activity ex vivo” value on GABA-T [4] (3 hours post-injection) was 76 % of control. The “GABA-T activity ex vivo” value at GABA-T [4] (6 hours post-injection) is reported as 77 % of control. Moreover, at GABA-T [4] (12 hours post-injection), the “GABA-T activity ex vivo” value is “not significantly different from control values”. In addition, the “MAO-B activity ex vivo” value at MAO-B [5] (setting [10]) was 24 % of control. Also, the “MAO-B activity ex vivo” value on MAO-B [5] (setting [11]) is on record as 29 % of control. Further, the “effect on MAO-B activity ex vivo” value on MAO-B [5] is reported as “significantly reducing MAO-B activity at all time points tested”. For the same compound, the “inhibition of MAO-B in vitro” value against MAO-B [6] (concentration of 10 μM) is “neither 7p nor 8p caused any inhibition of MAO-A or -B”.

As for `NNCCc1ccccc1` [PLZ, phenelzine, reference compound], the “inhibition of MAO-A in vitro” value against MAO-A [1] (setting [12]) was “greater than 95%”. In addition, the “inhibition of MAO-B in vitro” value at MAO-B [6] (setting [12]) was “greater than 95%”.

Consider `C#CCN(CC#C)/N=C/Cc1ccccc1` [7p], for which the “inhibition of MAO-A in vitro” value against MAO-A [1] (concentration of 10 μM) is on record as “neither 7p nor 8p caused any inhibition of MAO-A or -B”. For the same compound, in test [2], the “effect on brain GABA levels” value is given as “did not significantly alter the levels of GABA, alanine or glutamate at any time point tested”; the “effect on brain alanine levels” value is recorded as “did not significantly alter the levels of GABA, alanine or glutamate at any time point tested”; the “effect on brain glutamate levels” value was “did not significantly alter the levels of GABA, alanine or glutamate at any time point tested”; the “effect on brain glycine levels” value is “increased glycine at 3, 6 and 12 hours post-injection”. Further, in test [2] (12 hours post-injection, 7p 47 mg/kg i.p.), the brain glycine level is on record as 248 % of control. For the same compound, the “effect on MAO-A activity ex vivo” value on MAO-A [3] is “did not significantly alter MAO-A activity at any time point tested”. In addition, the “GABA-T activity ex vivo” value at GABA-T [4] (3 hours post-injection) is 86 % of control. Besides, on GABA-T [4] (6 hours post-injection), the “GABA-T activity ex vivo” value is given as 86 % of control. On GABA-T [4] (12 hours post-injection), the “GABA-T activity ex vivo” value was “not significantly different from control values”. Moreover, the “MAO-B activity ex vivo” value on MAO-B [5] (setting [10]) is 58 % of control. On MAO-B [5] (setting [11]), the “MAO-B activity ex vivo” value is given as 25 % of control. The “effect on MAO-B activity ex vivo” value on MAO-B [5] was “significantly reducing MAO-B activity at all time points tested”. Also, the “inhibition of MAO-B in vitro” value at MAO-B [6] (concentration of 10 μM) was “neither 7p nor 8p caused any inhibition of MAO-A or -B”.

`NN=CCc1ccccc1` [PEH, β-Phenylethylidenehydrazine]: the “inhibition of MAO-A in vitro” value against MAO-A [1] (setting [12]) came to 26.7±3.1%. In test [2], the “effect on brain GABA levels” value was “increased brain GABA and alanine levels”; the “effect on brain alanine levels” value was “increased brain GABA and alanine levels”; the “effect on brain glutamate levels” value is listed as “did not significantly alter brain glutamate or glycine levels”; the “effect on brain glycine levels” value is on record as “did not significantly alter brain glutamate or glycine levels”. In addition, in test [2] (setting [13]), the “brain GABA level” value is 418 % of control and the brain alanine level is on record as 489 % of control. Also, the “effect on MAO-A activity ex vivo” value on MAO-A [3] was “did not alter the activity of either MAO-A or -B”. Moreover, the “GABA-T activity ex vivo” value at GABA-T [4] (3 hours post-injection) is recorded as 66 % of control. At GABA-T [4] (6 hours post-injection), the “GABA-T activity ex vivo” value is 66 % of control. Further, the “GABA-T activity ex vivo” value at GABA-T [4] (12 hours post-injection) is listed as 70 % of control. At MAO-B [5], the “effect on MAO-B activity ex vivo” value is on record as “did not alter the activity of either MAO-A or -B”. The compound further displayed an inhibition at 10 µM against GABA-T [7] of around 50%. In addition, at MAO-B [6] (setting [12]), the “inhibition of MAO-B in vitro” value amounted to 14.9±6.6%.
